Experimental data taken from patent publication US20250018048A1, “FLUCONAZOLE-COX INHIBITOR HYBRIDS: A DUAL-ACTING CLASS OF ANTIFUNGAL AZOLES” (Ramot at Tel-Aviv University Ltd., priority 2022, published 2025).
In brackets after ≈: the same amount, converted by molar mass.

Key:
Assay type in all cases: cell-based
[1] = tested on: C. albicans SN152; assay: MIC80 broth double-dilution assay; conditions: for MIC80 against C. albicans SN152: YPAD medium, 30° C., 24 h, parent strain of the erg11ΔΔ/erg3ΔΔ mutant; for MIC80: Candida albicans, SN152, 24 h, read-out: MIC80 against C. albicans SN152
In short: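 CLSI M27-A3-based broth microdilution in YPAD, cells diluted from 1×10^−3 OD600 suspension 1:100, hybrids double-diluted from 64 to 0.003 μg/mL. After 24 h at 30 °C, MIC80 is the OD600 reduction >80% versus no-drug wells; triplicate, two independent experiments.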

[2] = tested on: erg11ΔΔ/erg3ΔΔ mutant C. albicans; assay: Growth curve analysis of C. albicans lacking CYP51; conditions: YPAD, 30° C., 48 h
Procedure: The clinically used FLC and VOR act primarily by preventing ergosterol biosynthesis via inhibition of CYP51. Analysis was done to determine whether fungal growth inhibition by the hybrids required the presence of the ERG11 gene that encodes for CYP51. The antifungal activities of hybrids 1 and 5 and of FLC and VOR were determined against an erg11ΔΔ/erg3ΔΔ mutant C. albicans strain and against C. albicans SN152 from which this double knockout strain was derived (Table S2). […] Yeast growth was followed at OD600 over 48 h in 96-well plates containing serial double dilutions of the tested hybrids.
Cells of erg11ΔΔ/erg3ΔΔ mutant C. albicans were grown in YPAD media at 30° C. and treated with different concentrations of the tested hybrids. Growth was measured by recording the OD600 values every 40 minutes over a 48-h course on an automated plate reader.
Growth curve analyses: Growth curves were determined using the double-dilution method in 96-well plates. Starter cultures were streaked from glycerol stock onto YPAD agar plates and grown for 24 h at 30° C. Colonies were suspended in 1 mL PBS and diluted to 1×10^−3 OD600 and then diluted 1:100 into fresh medium. Hybrids dissolved in DMSO were added to YPAD broth (32 μL stock solution in 1218 μL of YPAD broth), and serial double dilutions of hybrids in YPAD were prepared in flat-bottomed 96-well microplates (Corning) to enable testing of concentrations ranging from 64 μg/mL to 1 μg/mL. Control wells with yeast cells but no drug (100% growth) and blank wells containing only YPAD (0% growth) were prepared. An equal volume (100 μL) of yeast suspensions in YPAD broth was added to each well with the exceptions of the blank wells. Growth was determined at 30° C. by measuring the OD600 using a plate reader (Infinite M200 PRO, Tecan) every 40 minutes over 48 h. Each concentration was tested in triplicate, and results were confirmed by two independent sets of experiments. FLC and VOR were used as control drugs.

[3] = tested on: C. guilliermondii T-47; assay: MIC80 broth double-dilution assay; conditions: YPAD medium, 30° C., 24 h; for MIC80: Meyerozyma guilliermondii, T47, read-out: MIC80 against C. guilliermondii T-47
In short: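 Broth double dilution following modified CLSI M27-A3, YPAD medium, compound range 64 to 0.003 μg/mL; inoculum from 1×10^−3 OD600 suspension diluted 1:100. After 24 h at 30 °C, MIC80 taken as lowest concentration reducing OD600 by >80% versus no-drug control; triplicates, fluconazole and voriconazole as controls.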

[4] = tested on: C. auris ATCC MYA5001; assay: MIC broth double-dilution assay with MTT (CLSI M27-A3); conditions: 37° C., 24 h; for MIC against C. auris 5001: YPAD medium, growth score 0 or 1; for MIC: Candidozyma auris, ATCCMYA5001, YPAD medium, growth score 0 or 1, read-out: MIC against C. auris 5001
Procedure: (§1) Minimal inhibitory concentration broth double-dilution assay: C. auris minimal inhibitory concentrations (MICs) were determined using CLSI M27-A3 guidelines with minor modifications. Starter cultures were streaked from glycerol stock onto YPAD agar plates and grown for 24 h at 37° C. Colonies were suspended in 1 mL PBS and diluted to 1×10^−3 optical density at 600 nm (OD600) and then diluted 1:100 into fresh medium. hybrids dissolved in DMSO were added to YPAD broth (32 μL stock solution in 1218 μL of YPAD broth), and serial double dilutions of hybrids in YPAD were prepared in flat-bottomed 96-well microplates (Corning) to enable testing of concentrations ranging from 64 μg/mL to 0.007 μg/mL. Control wells with yeast cells but no drug and blank wells containing only YPAD were prepared. An equal volume (100 μL) of yeast suspension in YPAD broth was added to each well with the exceptions of the blank wells. After incubation for 24 h at 37° C., MTT (50 μL of a 1 mg/mL solution in ddH2O) was added to each well followed by additional incubation at 37° C. for 2 h. MIC values (Table S3) were defined as the lowest concentration of an antifungal agent that caused a specified reduction in visible growth as per the CLSI M27-A3 protocol. The magnitude of reduction in visible growth was assessed using the following numerical scale: 0, optically clear; 1, slightly hazy; 2, prominent decrease (˜50%) in visible growth; 3, slight reduction in visible growth; and 4, no reduction in visible growth. The MIC was defined based on reduction in growth to 0 or 1. Results were confirmed in two independent experiments, and each concentration was tested in triplicate. FLC and VOR were used as control drugs.

[5] = tested on: C. auris ATCC MYA5002; assay: as above; conditions: 37° C., 24 h; for MIC against C. auris 5002: YPAD medium, growth score 0 or 1; for MIC: Candidozyma auris, ATCCMYA5002, YPAD medium, growth score 0 or 1, read-out: MIC against C. auris 5002
Procedure: as §1

[6] = entire range of concentrations (64 to 1 μg/mL)

Row | Structure (SMILES) | MIC80 against C. albicans SN152 [1] | Effect on growth (OD600) of the double knockout mutant [2, 6] | MIC80 against C. guilliermondii T-47 [3] | MIC against C. auris 5001 [4] | MIC against C. auris 5002 [5] | MIC80 [1] | Effect on growth (OD600) of the double knockout mutant ([2]; at 64 μg/mL, the highest concentration tested) | MIC80 [3] | MIC [4] | MIC [5]
1 | C[C@H](C(=O)NC[C@](O)(Cn1cncn1)c1ccc(F)cc1F)c1ccc(-c2ccccc2)c(F)c1 [Hybrid 5] | 0.007 µg/mL (≈ 0.0146 µM) | clear dose-dependent reduction in growth | 0.5 µg/mL (≈ 1.04 µM) | 0.06 µg/mL (≈ 0.125 µM) | 4 µg/mL (≈ 8.32 µM) | – | – | – | – | –
2 | C[C@@H](c1ncncc1F)[C@](O)(Cn1cncn1)c1ccc(F)cc1F [VOR, voriconazole, reference compound] | – | – | – | – | – | 0.007 µg/mL (≈ 0.02 µM) | Modest reduction in growth | 0.06 µg/mL (≈ 0.172 µM) | 0.03 µg/mL (≈ 0.0859 µM) | 1 µg/mL (≈ 2.86 µM)
3 | OC(Cn1cncn1)(Cn1cncn1)c1ccc(F)cc1F [FLC, fluconazole] | – | no significant effect on the growth | – | – | – | 0.5 µg/mL (≈ 1.63 µM) | – | 4 µg/mL (≈ 13.1 µM) | 8 µg/mL (≈ 26.1 µM) | > 64 µg/mL
4 | CC(C)Cc1ccc([C@H](C)C(=O)NC[C@](O)(Cn2cncn2)c2ccc(F)cc2F)cc1 [Hybrid 1] | 0.003 µg/mL (≈ 0.00678 µM) | clear dose-dependent reduction in growth | 0.06 µg/mL (≈ 0.136 µM) | 0.06 µg/mL (≈ 0.136 µM) | 1 µg/mL (≈ 2.26 µM) | – | – | – | – | –
